Source: US11306071B2, “Heterocyclic compounds as adenosine antagonists” (Nuvation Bio Inc., priority 2019, dated 2022)

Legend:
[1] = target: adenosine A2a (human) membrane (Homo sapiens (Human), UniProt P29274); test: A2A adenosine receptor radioligand binding assay ([3H] CGS-21680); settings: radioligand [3H] CGS-21680 6 nM
Procedure: A second A2A adenosine receptor radioligand binding assay protocol was used. The protocol used adenosine A2a (human) membrane (PerkinElmer RBHA2AM400UA) at a concentration of 5 μg/well/100 μl and the radioligand [3H] CGS-21680 (Cat No. PerkinElmer-NET1021250UC) at a final concentration of 6 nM. Testing compounds were diluted with DMSO to make 8-point 4-fold serial dilution, starting at 0.2 mM. CGS-15943 was the reference compound. 1 μl of compounds/high control/low control was transferred to the assay plate according to a plate map, followed by 100 μl of membrane stocks and 100 μl of radioligand, in assay buffer (50 mM Tris-HCl, 10 mM MgCl2, 1 mM EDTA, pH 7.4). The plate was sealed and incubated at RT for 2 hours. Unifilter-96 GF/C filter plates (Perkin Elmer Cat #6005174) were soaked with 50 μl of 0.3% PEI per well for at least 0.5 hour at room temperature. When the binding assays were completed, the reaction mixtures were filtered through GF/C plates using Perkin Elmer Filtermate Harvester, and each plate washed 4 times with cold wash buffer (50 mM Tris-HCl, 154 mM NaCl, pH 7.4). The filter plates were dried for 1 hour at 50 degrees. After drying, the bottom of the filter plate wells was sealed, 50 μl of Perkin Elmer Microscint 20 cocktail was added, and the top of the filter plate was sealed. ^3H trapped on the filter was counted using Perkin Elmer MicroBeta2 Reader. The data were analyzed with GraphPad Prism 5 to obtain binding IC50 values. The “Inhibition [% Control]” was calculated using the equation: % Inh=(1-Background subtracted Assay value/Background subtracted HC value)*100, where HC is high control.

[2] = target: adenosine A1 (human) membrane (Homo sapiens (Human), UniProt P30542); test: A1 adenosine receptor radioligand binding assay ([3H] DPCPX); settings: 200 nM compound; radioligand [3H] DPCPX 1 nM
adenosine A1 (human) membrane, sequence (P30542 whole entry): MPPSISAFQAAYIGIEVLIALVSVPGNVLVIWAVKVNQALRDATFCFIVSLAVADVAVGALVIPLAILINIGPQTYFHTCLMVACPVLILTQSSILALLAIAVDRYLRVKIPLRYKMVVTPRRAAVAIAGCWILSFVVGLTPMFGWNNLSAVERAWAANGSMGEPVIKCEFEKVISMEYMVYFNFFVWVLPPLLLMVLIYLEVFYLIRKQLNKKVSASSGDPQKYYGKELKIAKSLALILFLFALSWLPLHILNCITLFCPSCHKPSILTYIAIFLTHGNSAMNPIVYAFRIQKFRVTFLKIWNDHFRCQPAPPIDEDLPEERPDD
Procedure: A second A1 adenosine receptor radioligand binding assay protocol was used. The protocol used adenosine A1 (human) membrane (PerkinElmer ES-010-M400UA) at a concentration of 2.5 μg/well/100 μl and the radioligand [3H] DPCPX (Cat No. PerkinElmer-NET974250UC) at a final concentration of 1 nM. Testing compounds were tested at a final concentration of 200 nM. CGS-15943, the reference compound, was tested in an 8-point 4-fold serial dilution, starting at a top concentration of 1 μM. 1 μl of compounds/high control/low control was transferred to the assay plate according to a plate map, followed by 100 μl of membrane stocks and 100 μl of radioligand, in assay buffer (25 mM HEPES, 5 mM MgCl2, 1 mM CaCl2, 100 mM NaCl, pH 7.4). The plate was sealed and incubated at RT for 1 hour. Unifilter-96 GF/C filter plates (Perkin Elmer Cat #6005174) were soaked with 50 μl of 0.3% PEI per well for at least 0.5 hour at room temperature. When the binding assays were completed, the reaction mixtures were filtered through GF/C plates using Perkin Elmer Filtermate Harvester, and each plate washed 4 times with cold wash buffer (25 mM HEPES, 5 mM MgCl2, 1 mM CaCl2, 100 mM NaCl, pH 7.4). The filter plates were dried for 1 hour at 50 degrees. After drying, the bottom of the filter plate wells was sealed, 50 μl of Perkin Elmer Microscint 20 cocktail was added, and the top of the filter plate was sealed. ^3H trapped on the filter was counted using Perkin Elmer MicroBeta2 Reader. The data were analyzed with GraphPad Prism 5 to obtain binding IC50 values for the reference compound. The “Inhibition [% Control]” was calculated using the equation: % Inh=(1-Background subtracted Assay value/Background subtracted HC value)*100, where HC is high control.

[3] = target: HEK-293 cells expressing human recombinant adenosine A1 receptor (Homo sapiens (Human), UniProt P30542); test: cAMP assay (Assay 2), A1 receptor; format: cell-based
HEK-293 cells expressing human recombinant adenosine A1 receptor, sequence (P30542 whole entry): as above
Procedure: (§1) The functional activity of compounds was tested using Assay 2, below, to detect the presence of cAMP. Assay 1 is an alternative assay for this purpose. Activation of G-protein coupled receptors (such as A2A) results in activation of adenylyl cyclase which converts ATP into cAMP which is used as a downstream signaling molecule. Therefore, molecules which act as GPCR (or specifically A2A receptor) antagonists cause a decrease in intracellular cAMP concentration.
(§2) Assay 2 (Table B2): This assay used HEK-293 cells expressing human recombinant adenosine A2A receptor (or, alternatively, A1 receptor) that were grown prior to the test in media without antibiotic. 100 nL of test articles at 100x of final concentration were transferred to assay plate by Echo. Cells were washed twice with 5 mL of PBS and 10 μL of cells were mixed with 5 mL PBS. After aspirating the PBS and adding 1.5 mL versine, cells were incubated at 37° C. for 2-5 min. After centrifugation, 4 mL of medium was added and adjusted cell density to 5,000 cells/well with Stimulation Buffer. 10 μL of cells were aliquoted to the assay plate, centrifuged at 1000 rpm for 1 minute, and incubated for 60 minutes at room temperature. 5 μL 4× Eu-cAMP tracer solution and 5 μL 4× Ulight™-anti-cAMP solution were added to assay plate, followed by centrifugation and 60-minute incubation at room temperature. Plates were read on EnVision.

[4] = target: HEK-293 cells expressing human recombinant adenosine A2A receptor (Homo sapiens (Human), UniProt P29274); test: cAMP assay (Assay 2), A2A receptor; format: cell-based
HEK-293 cells expressing human recombinant adenosine A2A receptor, sequence (P29274 whole entry): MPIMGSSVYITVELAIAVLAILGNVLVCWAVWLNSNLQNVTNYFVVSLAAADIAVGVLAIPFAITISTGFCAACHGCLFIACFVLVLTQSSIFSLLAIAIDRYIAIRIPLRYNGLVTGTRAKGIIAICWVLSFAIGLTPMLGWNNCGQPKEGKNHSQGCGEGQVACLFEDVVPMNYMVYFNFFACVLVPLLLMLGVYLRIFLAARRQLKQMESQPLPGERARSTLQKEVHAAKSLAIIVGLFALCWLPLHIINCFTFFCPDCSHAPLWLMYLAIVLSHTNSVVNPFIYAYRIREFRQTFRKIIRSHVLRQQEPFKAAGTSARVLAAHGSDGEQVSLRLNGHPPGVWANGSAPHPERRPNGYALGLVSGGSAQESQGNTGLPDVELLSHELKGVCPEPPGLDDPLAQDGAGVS
Procedure: as §1, §2

adenosine A2a (human) membrane, sequence (P29274 whole entry): as above

IC50 [1] | inhibition at 0.2 µM [2] | IC50 [3] | IC50 [4] | Structure (SMILES)
3.7 nM | 90% | 5 nM | 44 nM | N#Cc1cccc(-c2nc(N)cnc2-c2cc(Cl)c3ncccc3c2)c1 [Compound No. 2-6, 3-(6-amino-3-(8-chloroquinolin-6-yl)pyrazin-2-yl)benzonitrile]
3.1 nM | 79% | 27 nM | 39 nM | N#Cc1cccc(-c2nc(N)cnc2-c2cc(Cl)c3ncccc3c2)c1F [2-10, 3-(6-amino-3-(8-chloroquinolin-6-yl)pyrazin-2-yl)-2-fluorobenzonitrile]
1.9 nM | 93% | 24 nM | 143 nM | CC(NC(=O)c1nc(-c2cc(Cl)c3ncccc3c2)c(-c2ccc(F)cc2)nc1N)c1cccc(C#N)n1 (stereo not drawn) [Compound No. 102, 3-amino-6-(8-chloroquinolin-6-yl)-N-(1-(6-cyanopyridin-2-yl)ethyl)-5-(4-fluorophenyl)pyrazine-2-carboxamide]

More lines, now with the values behind:

Structure (SMILES) | IC50 [1] | inhibition at 0.2 µM [2] | IC50 [3] | IC50 [4]
C[C@@H](NC(=O)c1nc(-c2ccc3ncccc3c2)c(-c2ccccc2)nc1N)c1ccccn1 [compound 76, (R)-3-amino-5-phenyl-N-(1-(pyridin-2-yl)ethyl)-6-(quinolin-6-yl)pyrazine-2-carboxamide] | 3.4 nM | 45% | 804 nM | 24 nM
N#Cc1cccc(CNC(=O)c2nc(-c3cc(Cl)c4ncccc4c3)c(-c3ccc(F)cc3)nc2N)n1 [Compound No. 105, 3-amino-6-(8-chloroquinolin-6-yl)-N-((6-cyanopyridin-2-yl)methyl)-5-(4-fluorophenyl)pyrazine-2-carboxamide] | 1.2 nM | 94% | 10 nM | 48 nM
C[C@@H](NC(=O)c1nc(-c2cc(Cl)c3ncccc3c2)c(-c2ccn(C)n2)nc1N)c1ccccn1 [Compound No. 100, (R)-3-amino-6-(8-chloroquinolin-6-yl)-5-(1-methyl-1H-pyrazol-3-yl)-N-(1-(pyridin-2-yl)ethyl)pyrazine-2-carboxamide] | 1.6 nM | 70% | 22 nM | 28 nM
N#Cc1cccc(CNC(=O)c2nc(-c3ccc4ncccc4c3)c(-c3ccccc3)nc2N)n1 [compound 98, 3-amino-N-((6-cyanopyridin-2-yl)methyl)-5-phenyl-6-(quinolin-6-yl)pyrazine-2-carboxamide] | 0.8 nM | 92% | 11 nM | 18 nM
C[C@H](NC(=O)c1nc(-c2ccc3ncccc3c2)c(-c2ccccc2)nc1N)c1ccccn1 [compound 75, (S)-3-amino-5-phenyl-N-(1-(pyridin-2-yl)ethyl)-6-(quinolin-6-yl)pyrazine-2-carboxamide] | 2.5 nM | 63% | 219 nM | 25 nM
CC(C)(NC(=O)c1nc(-c2ccc3ncccc3c2)c(-c2ccccc2)nc1N)c1ccccn1 [compound 108, 3-amino-5-phenyl-N-(2-(pyridin-2-yl)propan-2-yl)-6-(quinolin-6-yl)pyrazine-2-carboxamide] | 1.3 nM | 47% | 326 nM | 55 nM
